Patent publication US4785017A, “3,4-dihydro-2H-1-benzopyran derivatives” (Hoffmann-La Roche Inc., priority 1984, dated 1988)

Key:
[1] = tested on: leukotriene E4 induced bronchoconstriction; test: Guinea Pig Bronchoconstriction, In Vivo (Aerosol), leukotriene E4 challenge; parameters: species or system guinea pig (Hartley strain); settings: five minute aerosol exposure (% w/v aerosol solution); maximum constrictory dose of leukotriene E4 i.v.; propanolol pretreatment
Procedure: (b) Guinea Pig Bronchoconstriction, In Vivo (Aerosol):
Male guinea pigs (Hartley strain) weighing 300 to 500 g are anesthetized with urethane (2 g/kg) intraperitoneally and a polyethylene cannula is inserted into the jugular vein for drug administration. Tracheal pressure is recorded from a cannula inserted in the trachea and connected to a Statham pressure transducer. After surgical preparation of the animals, a period of time is allowed for pulmonary functions to stabilize. The test compound is administered according to the following protocol. Propanolol (0.1 mg/kg) is administered intravenously while the animals breathed spontaneously. Five minutes thereafter, the animals are exposed for a five minute period to a 1% (w/v) aerosol solution of test compound (adjusted to an alkaline pH where necessary for drug solubilization) or to distilled water of the appropriate pH (for control purposes). A Monaghan (Model 750) ultrasonic nebulizer is used to administer all test compounds by inhalation. The nebulizer ultrasonic frequency is adjusted to produce particles in the 1-8μ diameter range (average 3μ). Aqueous solutions are prepared freshly and introduced into the chamber of the nebulizer. The output of the nebulizer is made available to the animal by directing a bias flow of aerosol through a Y tube connected to the tracheal cannula. At the end of the exposure period, the animals are paralyzed with succinylcholine (1.2 mg/kg, i.v.) and mechanically respirated (Harvard rodent respirator) at 40 breaths/minute and 2.5 cc tidal volume. Animals are then challenged with a maximum constrictory dose of leukotriene E4 delivered intravenously 30 seconds after administration of the succinylcholine.
The change (cm H2 O) between pre and peak ventilatory pressure readings averaged for three control animals and five drug treated animals. The percent inhibition is calculated from the following formula: [formula] When various drug concentrations are tested, the percent inhibition at each concentration is plotted as log concentration (abscissa) versus percent inhibition (ordinate) and the IC50 is determined from linear regression analysis.

[2] = tested on: SRS-A-induced constriction of the guinea pig ileum; test: Guinea Pig Ileum, In Vitro: inhibition of SRS-A-induced constriction (SRS-A antagonism); settings: SRS-A antagonism; SRS-A at EC50, 37° C., with atropine sulfate and pyrilamine maleate; read-out: In vitro Guinea Pig ileum IC50
Procedure: (a) Guinea Pig Ileum, In Vitro:
The guinea pig ileum bioassay system has been described by Orange Austen, Adv. Immunol. […] A 1.5 cm segment is removed from animals weighing 300-400 g and suspended in an organ bath containing 10 ml of Tyrodes solution with 10^-6 M atropine sulfate and 10^-6 M pyrilamine maleate. […] The SRS-A utilized in this screen is obtained by challenging chopped lung fragments from actively sensitized guinea pigs with egg albumin, in vitro. A dose-response curve to SRS-A challenge is established for the ileum. […] The drug concentration which inhibits, by 50%, the SRS-A-induced constriction of the guinea pig ileum is determined.

[3] = tested on: leukotriene D4 induced bronchoconstriction; test: Guinea Pig Bronchoconstriction, In Vivo (Aerosol), leukotriene D4 challenge; parameters: species or system guinea pig (Hartley strain); settings: aerosol assay with leukotriene E4 replaced with leukotriene D4

SMILES	Guinea Pig Bronchoconstriction In vivo aerosol - IC50(%) [1] [%]	IC50 [2] [nM]	IC50 value in inhibiting bronchoconstriction (aerosol) [3] [%]
CCCc1c(OCCCOc2ccc3c(c2)OCC(C(=O)O)C3)ccc(C(C)=O)c1O (racemic) [racemic 7-[3-(4-acetyl-3-hydroxy-2-propylphenoxy)propoxy]-3,4-dihydro-2H-1-benzopyran-3-carboxylic acid]	> 1.0	100	
CCCc1c(OCCCOc2c(C)c(C)c3c(c2C)CCC(C)(CC(=O)O)O3)ccc(C(C)=O)c1O (racemic) [racemic-6-[3-(4-acetyl-3-hydroxy-2-propylphenoxy)propoxy]-3,4-dihydro-2,5,7,8-tetramethyl-2H-1-benzopyran-2-acetic acid]	1.0	200	
CCCc1c(OCCCOc2c(C)c(C)c3c(c2C)CCC(C)(C(=O)O)O3)ccc(C(C)=O)c1O (racemic) [racemic-6-[3-(4-acetyl-3-hydroxy-2-propylphenoxy)propoxy]-3,4-dihydro-2,5,7,8-tetramethyl-2H-1-benzopyran-2-carboxylic acid]	1.0	100	
CCCc1c(OCCCOc2ccc3c(c2)CCC(C)(C(=O)O)O3)ccc(C(C)=O)c1O (racemic) [racemic-6-[3-(4-acetyl-3-hydroxy-2-propylphenoxy)propoxy]-3,4-dihydro-2-methyl-2H-1-benzopyran-2-carboxylic acid]	0.20	100	
CCCc1c(OCCCOc2ccc3c(c2)CCC(C)(CCC(=O)O)O3)ccc(C(C)=O)c1O (racemic) [racemic-6-[3-(4-acetyl-3-hydroxy-2-propylphenoxy)propoxy]-3,4-dihydro-2-methyl-2H-1-benzopyran-2-propanoic acid]	> 1.0	500	
CCCc1c(OCCCOc2ccc3c(c2)CCC(CC(=O)O)O3)ccc(C(C)=O)c1O (racemic) [racemic-6-[3-(4-acetyl-3-hydroxy-2-propylphenoxy)propoxy]-3,4-dihydro-2H-1-benzopyran-2-acetic acid]	1.0	400	
CCCc1c(OCCCOc2ccc3c(c2)CCC(C(=O)O)O3)ccc(C(C)=O)c1O (racemic) [racemic-6-[3-(4-acetyl-3-hydroxy-2-propylphenoxy)propoxy]-3,4-dihydro-2H-1-benzopyran-2-carboxylic acid]	0.50	500	
CCCc1c(OCCCOc2c(C)c(C)c3c(c2C)CCC(C(=O)O)O3)ccc(C(C)=O)c1O (racemic) [racemic-6-[3-(4-acetyl-3-hydroxy-2-propylphenoxy)propoxy]-3,4-dihydro-5,7,8-trimethyl-2H-1-benzopyran-2-carboxylic acid]	1.0	100	
CCCc1c(OCCCOc2c(C(C)=O)cc3c(c2CCC)OC(C)(CCC(=O)O)CC3)ccc(C(C)=O)c1O (racemic) [racemic-6-acetyl-7-[3-(4-acetyl-3-hydroxy-2-n-propylphenoxy)propoxy]-3,4-dihydro-2-methyl-8-n-propyl-2H-1-benzopyran-2-propanoic acid]	0.12	80	
CCCc1c(OCCCOc2cc3c(cc2C(C)=O)CCC(C(=O)O)O3)ccc(C(C)=O)c1O (racemic) [racemic-6-acetyl-7-[3-(4-acetyl-3-hydroxy-2-propylphenoxy)propoxy]-3,4-dihydro-2H-2-benzopyran-2-carboxylic acid]	0.20	100	
CCCc1c(OCCCOc2c(C(C)=O)cc3c(c2CCC)OC(C(=O)O)CC3)ccc(C(C)=O)c1O (racemic) [racemic-6-acetyl-7-[3-(4-acetyl-3-hydroxy-2-propylphenoxy)propoxy]-3,4-dihydro-8-propyl-2H-1-benzopyran-2-carboxylic acid]	0.38	100	
CCCc1c(OCCCCCOc2cc3c(cc2C(C)=O)CCC(C(=O)O)O3)ccc(C(C)=O)c1O (racemic) [racemic-6-acetyl-7-[5-(4-acetyl-3-hydroxy-2-propylphenoxy)pentyloxy]-3,4-dihydro-2H-1-benzopyran-2-carboxylic acid]	0.052	60	0.0056
CCCc1c(OCCCCCCCOc2cc3c(cc2C(C)=O)CCC(C(=O)O)O3)ccc(C(C)=O)c1O (racemic) [racemic-6-acetyl-7-[7-(4-acetyl-3-hydroxy-2-propylphenoxy)heptyloxy]-3,4-dihydro-2H-1-benzopyran-2-carboxylic acid]	1.0	1000	
CCCc1c(OCCCOc2ccc3c(c2CCC)OC(C)(CCC(=O)O)CC3)ccc(C(C)=O)c1O (racemic) [racemic-7-[3-(4-acetyl-3-hydroxy-2-n-propylphenoxy)propoxy]-3,4-dihydro-2-methyl-8-n-propyl-2H-1-benzopyran-2-propanoic acid]	0.71	500	
CCCc1c(OCCCOc2ccc3c(c2)OC(C(=O)O)CC3)ccc(C(C)=O)c1O (racemic) [racemic-7-[3-(4-acetyl-3-hydroxy-2-propyl)phenoxy)propoxy]-3,4-dihydro-2H-1-benzopyran-2-carboxylic acid]	0.14	60	
CCCc1c(OCCCOc2ccc3c(c2CCC)OC(C(=O)O)CC3)ccc(C(C)=O)c1O (racemic) [racemic-7-[3-(4-acetyl-3-hydroxy-2-propyl)phenoxy)propoxy]-3,4-dihydro-8-propyl-2H-1-benzopyran-2-carboxylic acid]	0.20	100	
CCCc1c(OCCCOc2ccc3c(c2)OC(C)(CCC(=O)O)CC3)ccc(C(C)=O)c1O (racemic) [racemic-7-[3-(4-acetyl-3-hydroxy-2-propylphenoxy)propoxy]-3,4-dihydro-2-methyl-2H-1-benzopyran-2-propanoic acid]	> 1.0	100	
CCCc1c(OCCCOc2ccc3c(c2)OC(CC(=O)O)CC3)ccc(C(C)=O)c1O (racemic) [racemic-7-[3-(4-acetyl-3-hydroxy-2-propylphenoxy)propoxy]-3,4-dihydro-2H-1-benzopyran-2-acetic acid]	0.67	100	
CCCc1c(OCCCOc2cc3c(cc2C(C)=O)OC(C)(C(=O)O)CC3)ccc(C(C)=O)c1O (racemic) [racemic-7-acetyl-6-[3-(4-acetyl-3-hydroxy-2-propylphenoxy)propoxy]-3,4-dihydro-2-methyl-2H-1-benzopyran-2-carboxylic acid]	1.0	500	
CCCc1c(OCCCOc2cc3c(cc2C(C)=O)OC(C(=O)O)CC3)ccc(C(C)=O)c1O (racemic) [racemic-7-acetyl-6-[3-(4-acetyl-3-hydroxy-2-propylphenoxy)propoxy]-3,4-dihydro-2H-1-benzopyran-2-carboxylic acid]	0.34	200	
CCCc1c(OCCCOc2ccc3c(c2C(C)=O)OC(C(=O)O)CC3)ccc(C(C)=O)c1O (racemic) [racemic-8-acetyl-7[3-(4-acetyl-3-hydroxy-2-propylphenoxy)propoxy]-3,4-dihydro-2H-1-benzopyran-2-carboxylic acid]	0.59	300	
CCCc1c(OCCCCCOc2cc3c(cc2C(C)=O)CC[C@H](C(=O)O)O3)ccc(C(C)=O)c1O [(R)-6-acetyl-7-[5-(4-acetyl-3-hydroxy-2-propylphenoxy)pentyloxy]-3,4-dihydro-2H-1-benzopyran-2-carboxylic acid]		100	0.018
CCCc1c(OCCCCCOc2cc3c(cc2C(C)=O)CC[C@@H](C(=O)O)O3)ccc(C(C)=O)c1O [(S)-6-acetyl-7-[5-(4-acetyl-3-hydroxy-2-propylphenoxy)pentyloxy]-3,4-dihydro-2H-1-benzopyran-2-carboxylic acid]		60	0.0018
